The values that follow come from patent publication US8513239B2, “Chiral cis-imidazolines” (Hoffmann-La Roche Inc., priority 2007, dated 2013).

interaction between p53 and MDM2 proteins, sequence (Q00987 whole entry): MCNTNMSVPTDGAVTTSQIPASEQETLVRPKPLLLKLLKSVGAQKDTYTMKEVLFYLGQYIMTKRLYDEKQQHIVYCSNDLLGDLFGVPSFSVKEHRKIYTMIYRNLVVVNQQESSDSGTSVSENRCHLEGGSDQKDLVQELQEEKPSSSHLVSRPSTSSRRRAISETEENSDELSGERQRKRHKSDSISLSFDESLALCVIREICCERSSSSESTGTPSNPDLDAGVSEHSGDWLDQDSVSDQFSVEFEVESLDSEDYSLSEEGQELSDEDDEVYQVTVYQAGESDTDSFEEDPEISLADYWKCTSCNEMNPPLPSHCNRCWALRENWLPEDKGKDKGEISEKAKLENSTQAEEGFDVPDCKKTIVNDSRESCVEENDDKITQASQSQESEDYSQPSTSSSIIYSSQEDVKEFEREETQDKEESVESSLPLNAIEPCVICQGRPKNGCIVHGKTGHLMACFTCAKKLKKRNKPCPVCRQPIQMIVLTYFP

For the test, the target named is interaction between p53 and MDM2 proteins (Homo sapiens, UniProt Q00987). The test can be described thus: HTRF assay of inhibition of p53-MDM2 interaction (GST-MDM2 binding to biotinylated p53 peptide). The note with it: recombinant GST-tagged MDM2, biotinylated p53 peptide, 0.2% BSA. Here is the method:
The ability of the compounds to inhibit the interaction between p53 and MDM2 proteins was measured by an HTRF (homogeneous time-resolved fluorescence) assay in which recombinant GST-tagged MDM2 binds to a peptide that resembles the MDM2-interacting region of p53 (Lane et al.). Binding of GST-MDM2 protein and p53-peptide (biotinylated on its N-terminal end) is registered by the FRET (fluorescence resonance energy transfer) between Europium (Eu)-labeled anti-GST antibody and streptavidin-conjugated Allophycocyanin (APC).
Test is performed in black flat-bottom 384-well plates (Costar) in a total volume of […] containing:90 nM biotinylate peptide, 160 ng/ml GST-MDM2, 20 nM streptavidin-APC (PerkinElmerWallac), 2 nM Eu-labeled anti-GST-antibody (PerkinElmerWallac), 0.2% bovine serum albumin (BSA), 1 mM dithiothreitol (DTT) and 20 mM […] (TBS) buffer as follows: Add 10 uL of GST-MDM2 (640 ng/ml working solution) in reaction buffer to each well. Add 10 uL diluted compounds (1:5 dilution in reaction buffer) to each well, mix by shaking. Add 20 uL biotinylated p53 peptide (180 nM working solution) in reaction buffer to each well and mix on shaker. Incubate at 37° C. for 1 h. Add 20 uL streptavidin-APC and Eu-anti-GST antibody mixture (6 nM Eu-anti-GST and 60 nM streptavidin-APC working solution) in TBS buffer with 0.2% BSA, shake at room temperature for 30 minutes and read using a TRF-capable plate reader at 665 and 615 nm (Victor 5, Perkin ElmerWallac). If not specified, the reagents were purchased from Sigma Chemical Co.
Turning to `CCOc1nc(C(C)(C)C)ncc1C1=N[C@@](C)(c2ccc(Cl)cc2)[C@@](C)(c2ccc(Cl)cc2)N1C(=O)N1CCN(C2CCS(=O)(=O)CC2)CC1` [Example 4, [(4S,5R)-2-(2-tert-Butyl-4-ethoxy-pyrimidin-5-yl)-4,5-bis-(4-chloro-phenyl)-4,5-dimethyl-4,5-dihydro-imidazol-1-yl]-[4-(1,1-dioxo-hexahydro-thiopyran-4-yl)-piperazin-1-yl]-methanone], the IC50 was found to be 46 nM.

For `CCOc1nc(C(C)(C)C)ncc1C1=N[C@@](C)(c2ccc(Cl)cc2)[C@@](C)(c2ccc(Cl)cc2)N1C(=O)N1CCN(CCOCCO)CC1` [Example 22, [(4S,5R)-2-(2-tert-Butyl-4-ethoxy-pyrimidin-5-yl)-4,5-bis-(4-chloro-phenyl)-4,5-dimethyl-4,5-dihydro-imidazol-1-yl]-{4-[2-(2-hydroxy-ethoxy)-ethyl]-piperazin-1-yl}-methanone], the IC50 was found to be 31 nM.

Regarding `CCOc1nc(C(C)(C)C)ncc1C1=N[C@@](C)(c2ccc(Cl)cc2)[C@@](C)(c2ccc(Cl)cc2)N1C(=O)N1CCN(CC(=O)N2CCOCC2)CC1` (racemic) [Example 40, Rac-2-{4-[(4S*,5R*)-2-(2-tert-Butyl-4-ethoxy-pyrimidin-5-yl)-4,5-bis-(4-chloro-phenyl)-4,5-dimethyl-4,5-dihydro-imidazole-1-carbonyl]-piperazin-1-yl}-1-morpholin-4-yl-ethanone], the half-maximal inhibitory concentration (IC50) is 77 nM.

Regarding `CCOc1nc(C(C)(C)C)ccc1C1=N[C@@](C)(c2ccc(Cl)cc2)[C@@](C)(c2ccc(Cl)cc2)N1C(=O)N1CCN(CCCS(C)(=O)=O)CC1` (racemic) [Example 9, Rac-[(4S*,5R*)-2-(6-tert-Butyl-2-ethoxy-pyridin-3-yl)-4,5-bis-(4-chloro-phenyl)-4,5-dimethyl-4,5-dihydro-imidazol-1-yl]-[4-(3-methanesulfonyl-propyl)-piperazin-1-yl]-methanone], the half-inhibitory concentration (IC50) is 178 nM.

Take `CCOc1nc(C(C)(C)C)ncc1C1=N[C@@](C)(c2ccc(Cl)cc2)[C@@](C)(c2ccc(Cl)cc2)N1C(=O)N1CCC(N2CCCC2)CC1` (racemic) [Example 29, [2-(2-tert-Butyl-4-ethoxy-pyrimidin-5-yl)-4,5-bis-(4-chloro-phenyl)-4,5-dimethyl-4,5-dihydro-imidazol-1-yl]-(4-pyrrolidin-1-yl-piperidin-1-yl)-methanone]: the IC50 stood at 252 nM.
